These are literature values, as cited in patent publication US8198326B2, “Phenolic antiseptic compositions and methods of use” (3M Innovative Properties Company, priority 2004, dated 2012).

In this data set the test system is methicillin resistant staphylococcus aureus. The conditions noted are these: reaction of free iodine with the organic load.

For povidone-iodine, the “decrease of activity on addition of nasal secretions” value is recorded as 80-90%.
